{
  "source": "ChEMBL document CHEMBL5291721",
  "about": "“A preclinical secondary pharmacology resource illuminates target-adverse drug reaction associations of marketed drugs” (Nat Commun, 2023); further: assay procedure not described here",
  "key": {"Thromboxane A2 receptor": {"target": "T1, Thromboxane A2 receptor (Homo sapiens, UniProt P21731)", "T1 sequence (P21731 whole entry)": "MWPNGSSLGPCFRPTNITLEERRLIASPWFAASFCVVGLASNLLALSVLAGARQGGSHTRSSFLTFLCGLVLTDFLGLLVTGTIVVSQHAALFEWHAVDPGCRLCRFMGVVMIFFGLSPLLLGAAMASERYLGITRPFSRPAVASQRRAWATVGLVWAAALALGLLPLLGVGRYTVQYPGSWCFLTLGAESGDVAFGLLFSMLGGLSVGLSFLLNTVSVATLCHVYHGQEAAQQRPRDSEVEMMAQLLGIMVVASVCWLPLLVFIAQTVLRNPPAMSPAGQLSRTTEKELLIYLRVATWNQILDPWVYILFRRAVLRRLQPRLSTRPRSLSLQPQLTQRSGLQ", "type": "functional"}, "Estrogen receptor": {"target": "T2, Estrogen receptor (Homo sapiens, UniProt P03372)", "T2 sequence (P03372 whole entry)": "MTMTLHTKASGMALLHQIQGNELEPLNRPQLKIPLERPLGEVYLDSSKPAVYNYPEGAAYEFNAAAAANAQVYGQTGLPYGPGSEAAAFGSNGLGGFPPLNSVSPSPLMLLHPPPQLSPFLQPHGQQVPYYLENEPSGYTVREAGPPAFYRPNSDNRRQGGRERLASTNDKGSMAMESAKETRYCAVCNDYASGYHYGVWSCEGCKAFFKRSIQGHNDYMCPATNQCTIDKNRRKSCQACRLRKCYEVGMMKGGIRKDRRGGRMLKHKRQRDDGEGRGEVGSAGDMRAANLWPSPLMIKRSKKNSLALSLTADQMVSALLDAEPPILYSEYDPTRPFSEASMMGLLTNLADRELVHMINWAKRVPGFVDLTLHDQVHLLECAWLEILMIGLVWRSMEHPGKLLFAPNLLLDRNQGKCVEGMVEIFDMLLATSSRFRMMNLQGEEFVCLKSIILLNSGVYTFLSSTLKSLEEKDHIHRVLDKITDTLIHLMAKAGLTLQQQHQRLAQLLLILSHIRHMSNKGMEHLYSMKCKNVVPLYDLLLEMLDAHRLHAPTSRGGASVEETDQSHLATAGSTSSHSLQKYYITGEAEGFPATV"}, "[1]": {"target": "5-hydroxytryptamine receptor 2A (Homo sapiens, UniProt P28223)", "sequence (P28223 whole entry)": "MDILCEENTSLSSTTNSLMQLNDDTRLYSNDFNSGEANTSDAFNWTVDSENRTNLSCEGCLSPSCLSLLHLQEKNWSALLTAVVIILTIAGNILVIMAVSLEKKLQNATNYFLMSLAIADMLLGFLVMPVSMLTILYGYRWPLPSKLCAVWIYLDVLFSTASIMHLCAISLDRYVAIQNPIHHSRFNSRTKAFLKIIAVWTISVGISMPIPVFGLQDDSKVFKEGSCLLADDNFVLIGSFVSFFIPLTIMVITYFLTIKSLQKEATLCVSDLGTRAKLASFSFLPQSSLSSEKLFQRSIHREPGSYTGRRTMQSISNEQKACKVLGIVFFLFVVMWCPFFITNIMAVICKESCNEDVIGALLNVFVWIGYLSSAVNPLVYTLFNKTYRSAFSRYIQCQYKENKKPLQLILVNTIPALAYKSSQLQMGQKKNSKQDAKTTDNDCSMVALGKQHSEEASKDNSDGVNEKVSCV"}, "[2]": {"target": "Hydroxycarboxylic acid receptor 2 (Homo sapiens, UniProt Q8TDS4)", "sequence (Q8TDS4 whole entry)": "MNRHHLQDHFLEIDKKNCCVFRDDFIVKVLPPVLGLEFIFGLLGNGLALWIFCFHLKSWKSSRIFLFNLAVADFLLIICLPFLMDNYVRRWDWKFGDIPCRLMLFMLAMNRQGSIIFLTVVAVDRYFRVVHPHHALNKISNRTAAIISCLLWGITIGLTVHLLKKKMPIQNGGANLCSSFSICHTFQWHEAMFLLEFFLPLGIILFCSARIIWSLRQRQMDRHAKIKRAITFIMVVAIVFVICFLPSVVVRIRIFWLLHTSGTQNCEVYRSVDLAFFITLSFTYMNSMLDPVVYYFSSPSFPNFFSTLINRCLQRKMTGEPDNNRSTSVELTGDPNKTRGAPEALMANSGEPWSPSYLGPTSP"}, "Estrogen receptor beta": {"target": "Estrogen receptor beta (Homo sapiens, UniProt Q92731)", "sequence (Q92731 whole entry)": "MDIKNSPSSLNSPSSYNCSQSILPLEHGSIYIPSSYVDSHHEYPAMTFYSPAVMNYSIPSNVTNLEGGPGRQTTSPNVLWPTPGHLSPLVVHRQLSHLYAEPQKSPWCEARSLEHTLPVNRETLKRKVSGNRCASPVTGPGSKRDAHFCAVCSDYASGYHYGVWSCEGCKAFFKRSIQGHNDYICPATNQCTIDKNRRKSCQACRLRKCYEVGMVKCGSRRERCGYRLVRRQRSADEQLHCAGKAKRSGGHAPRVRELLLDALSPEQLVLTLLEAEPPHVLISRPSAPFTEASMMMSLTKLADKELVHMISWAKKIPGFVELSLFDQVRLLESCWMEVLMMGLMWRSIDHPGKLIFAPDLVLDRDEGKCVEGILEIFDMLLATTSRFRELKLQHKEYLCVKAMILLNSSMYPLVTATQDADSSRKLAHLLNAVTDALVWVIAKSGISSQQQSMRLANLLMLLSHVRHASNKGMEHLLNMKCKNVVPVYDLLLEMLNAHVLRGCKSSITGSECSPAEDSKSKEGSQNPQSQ"}, "Cannabinoid receptor 1": {"target": "Cannabinoid receptor 1 (Homo sapiens, UniProt P21554)", "sequence (P21554 whole entry)": "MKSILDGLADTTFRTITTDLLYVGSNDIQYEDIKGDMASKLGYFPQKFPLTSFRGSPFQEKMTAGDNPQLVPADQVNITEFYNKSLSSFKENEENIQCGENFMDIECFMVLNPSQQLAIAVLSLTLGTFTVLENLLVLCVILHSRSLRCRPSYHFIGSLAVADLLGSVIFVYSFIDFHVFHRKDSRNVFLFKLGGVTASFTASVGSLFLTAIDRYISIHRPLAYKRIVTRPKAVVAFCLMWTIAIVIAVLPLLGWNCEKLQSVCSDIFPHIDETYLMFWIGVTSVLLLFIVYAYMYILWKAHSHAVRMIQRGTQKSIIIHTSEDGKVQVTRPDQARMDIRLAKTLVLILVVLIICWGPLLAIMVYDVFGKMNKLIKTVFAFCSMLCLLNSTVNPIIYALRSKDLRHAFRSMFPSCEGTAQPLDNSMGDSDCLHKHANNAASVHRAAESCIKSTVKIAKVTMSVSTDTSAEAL", "type": "functional"}, "[3]": {"target": "Sodium-dependent serotonin transporter (Homo sapiens, UniProt P31645)", "sequence (P31645 whole entry)": "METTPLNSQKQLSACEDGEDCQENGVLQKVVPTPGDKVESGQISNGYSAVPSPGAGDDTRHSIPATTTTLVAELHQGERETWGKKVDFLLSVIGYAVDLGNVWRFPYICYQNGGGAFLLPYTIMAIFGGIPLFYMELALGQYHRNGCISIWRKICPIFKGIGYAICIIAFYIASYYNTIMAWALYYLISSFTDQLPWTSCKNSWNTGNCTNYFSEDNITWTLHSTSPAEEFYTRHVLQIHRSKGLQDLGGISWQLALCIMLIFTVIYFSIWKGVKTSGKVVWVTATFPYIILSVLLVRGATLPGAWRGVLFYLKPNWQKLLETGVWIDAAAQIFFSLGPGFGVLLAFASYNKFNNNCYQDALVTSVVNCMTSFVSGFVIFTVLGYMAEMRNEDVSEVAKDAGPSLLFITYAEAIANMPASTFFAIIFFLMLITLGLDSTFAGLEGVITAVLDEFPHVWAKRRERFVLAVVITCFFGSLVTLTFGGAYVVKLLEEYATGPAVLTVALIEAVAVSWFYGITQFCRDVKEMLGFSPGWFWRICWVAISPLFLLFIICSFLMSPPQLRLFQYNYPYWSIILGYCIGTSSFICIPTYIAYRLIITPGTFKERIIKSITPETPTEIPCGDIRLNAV"}, "[4]": {"target": "T3, Amine oxidase [flavin-containing] A (Homo sapiens, UniProt P21397)", "T3 sequence (P21397 whole entry)": "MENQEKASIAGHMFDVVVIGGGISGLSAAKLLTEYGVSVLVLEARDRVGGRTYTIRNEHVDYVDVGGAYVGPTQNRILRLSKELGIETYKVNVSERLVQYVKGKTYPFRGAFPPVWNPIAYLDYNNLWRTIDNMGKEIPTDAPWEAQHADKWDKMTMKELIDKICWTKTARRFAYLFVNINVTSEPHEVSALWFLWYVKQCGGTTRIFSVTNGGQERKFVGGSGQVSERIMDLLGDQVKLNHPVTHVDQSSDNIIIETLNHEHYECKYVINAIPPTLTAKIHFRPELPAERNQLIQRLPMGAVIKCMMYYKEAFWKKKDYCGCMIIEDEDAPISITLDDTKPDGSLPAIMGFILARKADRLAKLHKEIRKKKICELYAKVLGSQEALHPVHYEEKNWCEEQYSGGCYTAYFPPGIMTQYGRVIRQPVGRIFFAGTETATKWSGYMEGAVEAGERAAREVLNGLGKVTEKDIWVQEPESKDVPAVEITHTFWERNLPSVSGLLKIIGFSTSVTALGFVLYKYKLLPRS", "type": "functional"}, "[5]": {"target": "T4, Muscarinic acetylcholine receptor M1 (Homo sapiens, UniProt P11229)", "T4 sequence (P11229 whole entry)": "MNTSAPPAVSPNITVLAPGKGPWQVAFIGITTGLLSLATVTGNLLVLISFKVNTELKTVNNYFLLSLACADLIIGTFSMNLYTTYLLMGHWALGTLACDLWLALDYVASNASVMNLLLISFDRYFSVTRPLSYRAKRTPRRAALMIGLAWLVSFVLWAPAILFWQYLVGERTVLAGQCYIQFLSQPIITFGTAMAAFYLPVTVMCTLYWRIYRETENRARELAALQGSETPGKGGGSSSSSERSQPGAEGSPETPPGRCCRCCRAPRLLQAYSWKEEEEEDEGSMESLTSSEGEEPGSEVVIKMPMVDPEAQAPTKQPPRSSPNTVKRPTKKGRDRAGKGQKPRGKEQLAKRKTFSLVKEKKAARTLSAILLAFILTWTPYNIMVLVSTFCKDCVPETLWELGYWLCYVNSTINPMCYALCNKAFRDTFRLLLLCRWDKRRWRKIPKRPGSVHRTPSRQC", "type": "functional, cell-based"}, "[6]": {"target": "T5, Alpha-2A adrenergic receptor (Homo sapiens, UniProt P08913)", "T5 sequence (P08913 whole entry)": "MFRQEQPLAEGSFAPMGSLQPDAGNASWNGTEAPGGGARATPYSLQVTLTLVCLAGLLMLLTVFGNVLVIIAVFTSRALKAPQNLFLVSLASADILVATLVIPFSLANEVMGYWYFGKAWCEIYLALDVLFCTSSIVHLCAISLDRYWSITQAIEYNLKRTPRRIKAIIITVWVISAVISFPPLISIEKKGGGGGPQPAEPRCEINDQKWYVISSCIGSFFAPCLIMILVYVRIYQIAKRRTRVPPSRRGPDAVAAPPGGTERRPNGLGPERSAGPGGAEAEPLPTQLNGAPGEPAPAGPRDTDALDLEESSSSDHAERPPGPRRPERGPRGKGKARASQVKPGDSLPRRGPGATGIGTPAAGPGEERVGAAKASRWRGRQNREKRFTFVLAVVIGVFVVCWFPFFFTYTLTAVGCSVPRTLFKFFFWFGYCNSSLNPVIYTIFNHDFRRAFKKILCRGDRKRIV"}},
  "data": [
    {"compound": "THIMEROSAL", "values": [
      {"measurement": "AC50", "setting": "Thromboxane A2 receptor", "value": "> 30", "unit": "µM"},
      {"measurement": "AC50", "setting": "Estrogen receptor", "value": "> 30", "unit": "µM"}
    ]},
    {"compound": "Cc1nnc2n1-c1ccc(Cl)cc1C(c1ccccc1Cl)=NC2", "note": "[TRIAZOLAM]", "values": [
      {"measurement": "AC50", "setting": "[1]", "value": 3.2, "unit": "µM"}
    ]},
    {"compound": "COc1cccc(C2(O)CCCCC2CN(C)C)c1", "note": "(stereo not given) [TRAMADOL]", "values": [
      {"measurement": "AC50", "setting": "[2]", "value": "> 10", "unit": "µM"}
    ]},
    {"compound": "Cc1c(OCC(F)(F)F)ccnc1C[S+]([O-])c1nc2ccccc2[nH]1", "note": "(stereo not given) [LANSOPRAZOLE]", "values": [
      {"measurement": "AC50", "setting": "Estrogen receptor beta", "value": "> 30", "unit": "µM"},
      {"measurement": "AC50", "setting": "Cannabinoid receptor 1", "value": "> 10", "unit": "µM"}
    ]},
    {"compound": "CO[C@]12C[C@@H](COC(=O)c3cncc(Br)c3)CN(C)[C@@H]1Cc1cn(C)c3cccc2c13", "note": "[NICERGOLINE]", "values": [
      {"measurement": "AC50", "setting": "[3]", "value": 7.26, "unit": "µM"},
      {"measurement": "AC50", "setting": "[4]", "value": "> 30", "unit": "µM"},
      {"measurement": "AC50", "setting": "[5]", "value": "> 30", "unit": "µM"},
      {"measurement": "AC50", "setting": "[6]", "value": 0.0426, "unit": "µM"}
    ]}
  ]
}
